Where two headings read alike, the source gives them in different places.
What was measured:
[1] = biological target: T1, Human mTOR (FLAG-TOR) (Homo sapiens, UniProt P42345); experiment: Human mTOR kinase assay with purified enzyme, DELFIA format; type: biochemical
T1 construct: FLAG
Summary of the method: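 Purified FLAG-mTOR in HEPES pH 7.4 buffer with 10 mM MnCl2 was preincubated with inhibitor and reacted 2 h at room temperature with His6-S6K substrate, then stopped with EDTA/EGTA. Phospho-T389 S6K detected by DELFIA with Eu-labelled antibody (40 ng/mL) after plate capture; inhibition computed from signal.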

[2] = test system: prostate line LNCap; experiment: In vitro cell culture growth assay (MTS), LNCap; type: cell-based; conditions: Homo sapiens, LNCaP, 72 h, LNCap cells, three days after drug treatment
Summary of the method: (§1)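 Cells were plated and, one day later, treated with inhibitors. Three days after treatment, viable cell density was measured by MTS dye conversion, read as absorbance at 490 nm. Effects are expressed as percent of control growth versus vehicle-treated cells on the same plate.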

[3] = test system: breast line MDA468; experiment: In vitro cell culture growth assay (MTS), MDA468; type: cell-based; conditions: Homo sapiens, 72 h, MDA468 cells, three days after drug treatment
Summary of the method: as §1

[4] = biological target: T2, PI3K (Homo sapiens, UniProt P48736); experiment: Fluorescence polarization assay for PI3K; type: biochemical; conditions: read-out: PI3 Kinase γ IC50
T2 construct: PI3 Kinase γ IC50; other: PI3 Kinase γ; other: PI3 Kinase γ isoform, fluorescence polarization
T2 sequence (P48736 whole entry, canonical isoform): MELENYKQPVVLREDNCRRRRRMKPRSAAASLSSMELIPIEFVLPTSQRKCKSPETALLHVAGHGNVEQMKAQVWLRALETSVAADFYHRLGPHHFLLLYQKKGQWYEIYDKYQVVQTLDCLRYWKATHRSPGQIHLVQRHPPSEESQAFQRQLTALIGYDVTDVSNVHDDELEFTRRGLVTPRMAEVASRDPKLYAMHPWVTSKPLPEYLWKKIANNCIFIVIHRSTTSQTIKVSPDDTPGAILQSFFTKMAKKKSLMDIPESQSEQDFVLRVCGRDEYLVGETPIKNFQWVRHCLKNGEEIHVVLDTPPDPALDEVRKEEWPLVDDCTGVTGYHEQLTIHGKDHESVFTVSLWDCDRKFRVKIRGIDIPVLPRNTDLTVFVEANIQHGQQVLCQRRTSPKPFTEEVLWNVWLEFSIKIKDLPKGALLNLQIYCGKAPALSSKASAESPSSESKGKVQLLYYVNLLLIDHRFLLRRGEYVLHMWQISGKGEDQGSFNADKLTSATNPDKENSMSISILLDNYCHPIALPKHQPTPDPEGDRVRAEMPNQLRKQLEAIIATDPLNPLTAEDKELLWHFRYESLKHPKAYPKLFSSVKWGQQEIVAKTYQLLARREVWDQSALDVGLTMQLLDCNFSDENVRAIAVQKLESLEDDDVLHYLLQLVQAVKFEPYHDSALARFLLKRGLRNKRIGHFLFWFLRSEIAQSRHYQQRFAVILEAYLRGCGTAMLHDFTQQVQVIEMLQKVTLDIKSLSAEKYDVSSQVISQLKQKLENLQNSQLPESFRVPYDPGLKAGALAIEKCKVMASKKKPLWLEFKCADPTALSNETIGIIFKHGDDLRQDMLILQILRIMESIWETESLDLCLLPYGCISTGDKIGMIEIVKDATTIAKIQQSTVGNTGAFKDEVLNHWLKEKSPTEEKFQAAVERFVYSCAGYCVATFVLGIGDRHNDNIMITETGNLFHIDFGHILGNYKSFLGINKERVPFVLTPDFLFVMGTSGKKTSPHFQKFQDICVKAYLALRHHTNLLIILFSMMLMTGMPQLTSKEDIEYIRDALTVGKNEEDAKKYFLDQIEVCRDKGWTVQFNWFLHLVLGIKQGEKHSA
Summary of the method: (§2)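 PI3K was preincubated with compound (final DMSO 1%), and the reaction was started with PIP2/ATP substrate and run 30–60 min. It was stopped with a detector mix giving 10 nM red probe and 70 nM GST-GRP.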

[5] = biological target: T3, PI3K (Homo sapiens, UniProt P42336); experiment: Fluorescence polarization assay for PI3K; type: biochemical; conditions: read-out: PI3 Kinase α IC50
T3 construct: PI3 Kinase α IC50; other: PI3 Kinase α; other: PI3 Kinase α isoform, fluorescence polarization
T3 sequence (P42336 whole entry, canonical isoform): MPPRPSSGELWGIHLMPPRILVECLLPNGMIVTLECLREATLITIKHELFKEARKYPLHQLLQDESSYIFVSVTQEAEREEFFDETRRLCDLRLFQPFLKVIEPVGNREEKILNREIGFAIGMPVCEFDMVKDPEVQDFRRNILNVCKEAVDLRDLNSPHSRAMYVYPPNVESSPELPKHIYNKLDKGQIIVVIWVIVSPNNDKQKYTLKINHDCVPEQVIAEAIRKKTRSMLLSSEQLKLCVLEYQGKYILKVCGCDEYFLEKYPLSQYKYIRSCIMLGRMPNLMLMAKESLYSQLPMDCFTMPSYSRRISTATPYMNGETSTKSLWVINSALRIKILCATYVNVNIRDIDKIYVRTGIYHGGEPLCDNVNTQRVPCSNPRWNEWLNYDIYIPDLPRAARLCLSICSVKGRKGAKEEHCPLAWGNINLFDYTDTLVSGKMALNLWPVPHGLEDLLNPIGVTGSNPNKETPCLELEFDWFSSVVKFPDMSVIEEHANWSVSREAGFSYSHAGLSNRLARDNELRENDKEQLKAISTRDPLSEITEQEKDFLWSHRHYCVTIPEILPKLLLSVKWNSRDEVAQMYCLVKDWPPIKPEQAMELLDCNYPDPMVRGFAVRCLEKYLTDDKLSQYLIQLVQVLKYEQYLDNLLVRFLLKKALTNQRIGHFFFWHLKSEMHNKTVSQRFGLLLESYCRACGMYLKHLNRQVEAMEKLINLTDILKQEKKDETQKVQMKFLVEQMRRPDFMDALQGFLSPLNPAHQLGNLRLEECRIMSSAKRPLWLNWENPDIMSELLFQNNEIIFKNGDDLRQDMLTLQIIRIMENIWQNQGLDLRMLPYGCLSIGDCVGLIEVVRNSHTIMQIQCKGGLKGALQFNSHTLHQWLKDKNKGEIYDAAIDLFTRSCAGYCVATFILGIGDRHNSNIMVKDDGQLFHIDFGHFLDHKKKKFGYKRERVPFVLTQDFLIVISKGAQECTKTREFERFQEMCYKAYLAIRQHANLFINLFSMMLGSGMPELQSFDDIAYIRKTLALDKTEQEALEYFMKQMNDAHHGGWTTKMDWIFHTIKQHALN
Summary of the method: as §2

[6] = purified human mTOR enzyme, DELFIA format
[7] = PI3 Kinase γ isoform, fluorescence polarization
[8] = PI3 Kinase α isoform, fluorescence polarization

## CCn1ncc2c(N3CC4CCC(C3)O4)nc(-c3ccc(NC(=O)Nc4ccc(OCCO)nc4)cc3)nc21 [Example 282, 1-{4-[1-ethyl-4-(8-oxa-3-azabicyclo[3.2.1]oct-3-yl)-1H-pyrazolo[3,4-d]pyrimidin-6-yl]phenyl}-3-[6-(2-hydroxyethoxy)pyridin-3-yl]urea]
[1]
  IC50: 0.3 nM
[2]
  IC50: 5 nM
[3]
  IC50: 21 nM
[4]; PI3 Kinase γ
  IC50: 1160 nM
[5]; PI3 Kinase α
  IC50: 166 nM

## CCn1ncc2c(N3CC4CCC(C3)O4)nc(-c3ccc(NC(=O)Nc4ccc(OCCN5CCOCC5)nc4)cc3)nc21 [Example 283, 1-{4-[1-ethyl-4-(8-oxa-3-azabicyclo[3.2.1]oct-3-yl)-1H-pyrazolo[3,4-d]pyrimidin-6-yl]phenyl}-3-[6-(2-morpholin-4-ylethoxy)pyridin-3-yl]urea]
[1]
  IC50: 0.975 nM
[2]
  IC50: < 1 nM
[3]
  IC50: 8 nM
[4]; PI3 Kinase γ
  IC50: 4750 nM
[5]; PI3 Kinase α
  IC50: 373 nM

## CCn1ncc2c(N3CC4CCC(C3)O4)nc(-c3ccc(NC(=O)Nc4ccc(N(C)C)nc4)cc3)nc21 [Example 284, 1-[6-(dimethylamino)pyridin-3-yl]-3-{4-[1-ethyl-4-(8-oxa-3-azabicyclo[3.2.1]oct-3-yl)-1H-pyrazolo[3,4-d]pyrimidin-6-yl]phenyl}urea]
[1]
  IC50: 1.5 nM
[2]
  IC50: 6 nM
[3]
  IC50: 80 nM
[4]; PI3 Kinase γ
  IC50: > 10000 nM
[5]; PI3 Kinase α
  IC50: 419 nM

## CCn1ncc2c(N3CC4CCC(C3)O4)nc(-c3ccc(NC(=O)Nc4ccc(C(N)=O)cc4)cc3)nc21 [Example 285, 4-[({4-[1-ethyl-4-(8-oxa-3-azabicyclo[3.2.1]oct-3-yl)-1H-pyrazolo[3,4-d]pyrimidin-6-yl]phenyl}carbamoyl)amino]benzamide]
[1]
  IC50: 0.105 nM
[2]
  IC50: < 1 nM
[3]
  IC50: 1 nM
[4]; PI3 Kinase γ
  IC50: 524 nM
[5]; PI3 Kinase α
  IC50: 23 nM

## CCn1ncc2c(N3CC4CCC(C3)O4)nc(-c3ccc(NC(=O)Nc4ccc(NC)nc4)cc3)nc21 [Example 286, 1-{4-[1-ethyl-4-(8-oxa-3-azabicyclo[3.2.1]oct-3-yl)-1H-pyrazolo[3,4-d]pyrimidin-6-yl]phenyl}-3-[6-(methylamino)pyridin-3-yl]urea]
[1]
  IC50: 0.9 nM
[2]
  IC50: 17 nM
[3]
  IC50: 200 nM
[4]; PI3 Kinase γ
  IC50: 14900 nM
[5]; PI3 Kinase α
  IC50: 270 nM

## CCn1ncc2c(N3CC4CCC(C3)O4)nc(-c3ccc(NC(=O)Nc4ccc(N)nc4)cc3)nc21 [Example 287, 1-(6-aminopyridin-3-yl)-3-{4-[1-ethyl-4-(8-oxa-3-azabicyclo[3.2.1]oct-3-yl)-1H-pyrazolo[3,4-d]pyrimidin-6-yl]phenyl}urea]
[1]
  IC50: 0.41 nM
[2]
  IC50: 37 nM
[3]
  IC50: 200 nM
[4]; PI3 Kinase γ
  IC50: 1460 nM
[5]; PI3 Kinase α
  IC50: 164 nM

## CCn1ncc2c(N3CC4CCC(C3)O4)nc(-c3ccc(NC(=O)Nc4ccc(N5CCNCC5)cc4)cc3)nc21 [Example 288, 1-{4-[1-ethyl-4-(8-oxa-3-azabicyclo[3.2.1]oct-3-yl)-1H-pyrazolo[3,4-d]pyrimidin-6-yl]phenyl}-3-(4-piperazin-1-ylphenyl)urea]
[1]
  IC50: 0.575 nM
[2]
  IC50: < 1 nM
[3]
  IC50: 50 nM
[4]; PI3 Kinase γ
  IC50: 534 nM
[5]; PI3 Kinase α
  IC50: 53 nM

## CCn1ncc2c(N3CC4CCC(C3)O4)nc(-c3ccc(NC(=O)Nc4ccc(C(=O)NN(C)C)cc4)cc3)nc21 [Example 289, 1-{4-[(2,2-dimethylhydrazino)carbonyl]phenyl}-3-{4-[1-ethyl-4-(8-oxa-3-azabicyclo[3.2.1]oct-3-yl)-1H-pyrazolo[3,4-d]pyrimidin-6-yl]phenyl}urea]
[1]
  IC50: 0.33 nM
[2]
  IC50: < 1 nM
[3]
  IC50: < 1 nM
[4]; PI3 Kinase γ
  IC50: 706 nM
[5]; PI3 Kinase α
  IC50: 109 nM

## CCn1ncc2c(N3CC4CCC(C3)O4)nc(-c3ccc(NC(=O)Nc4ccc(C(=O)NN5CCCC5)cc4)cc3)nc21 [Example 290, 4-[({4-[1-ethyl-4-(8-oxa-3-azabicyclo[3.2.1]oct-3-yl)-1H-pyrazolo[3,4-d]pyrimidin-6-yl]phenyl}carbamoyl)amino]-N-pyrrolidin-1-ylbenzamide]
[1]
  IC50: 0.175 nM
[2]
  IC50: < 1 nM
[3]
  IC50: 4 nM
[4]; PI3 Kinase γ
  IC50: 757 nM
[5]; PI3 Kinase α
  IC50: 102 nM

## O=C(Nc1ccc(-c2nc(N3C[C@@H]4C[C@H]3CO4)c3cnn(CC(F)(F)F)c3n2)cc1)OCCO [Example 291, 2-hydroxyethyl (4-{4-[(1S,4S)-2-oxa-5-azabicyclo[2.2.1]hept-5-yl]-1-(2,2,2-trifluoroethyl)-1H-pyrazolo[3,4-d]pyrimidin-6-yl}phenyl)carbamate]
[1]
  IC50: 9 nM
[2]
  IC50: 170 nM
[3]
  IC50: 300 nM
[4]; PI3 Kinase γ
  IC50: > 10000 nM
[5]; PI3 Kinase α
  IC50: 6140 nM

## CNC(=O)Nc1ccc(-c2nc(N3C[C@@H]4C[C@H]3CO4)c3cnn(CC(F)(F)F)c3n2)cc1 [Example 292, 1-methyl-3-(4-{4-[(1S,4S)-2-oxa-5-azabicyclo[2.2.1]hept-5-yl]-1-(2,2,2-trifluoroethyl)-1H-pyrazolo[3,4-d]pyrimidin-6-yl}phenyl)urea]
[1]
  IC50: 5.5 nM
[2]
  IC50: 80 nM
[3]
  IC50: 300 nM
[4]; PI3 Kinase γ
  IC50: > 10000 nM
[5]; PI3 Kinase α
  IC50: 2090 nM

## O=C(Nc1ccc(-c2nc(N3C[C@@H]4C[C@H]3CO4)c3cnn(CC(F)(F)F)c3n2)cc1)Nc1cccnc1 [Example 293, 1-(4-{4-[(1S,4S)-2-oxa-5-azabicyclo[2.2.1]hept-5-yl]-1-(2,2,2-trifluoroethyl)-1H-pyrazolo[3,4-d]pyrimidin-6-yl}phenyl)-3-pyridin-3-ylurea]
[1]
  IC50: 1.25 nM
[2]
  IC50: 17 nM
[3]
  IC50: 50 nM
[4]; PI3 Kinase γ
  IC50: > 10000 nM
[5]; PI3 Kinase α
  IC50: 602 nM

## O=C(Nc1ccc(CO)cc1)Nc1ccc(-c2nc(N3C[C@@H]4C[C@H]3CO4)c3cnn(CC(F)(F)F)c3n2)cc1 [Example 294, 1-[4-(hydroxymethyl)phenyl]-3-(4-{4-[(1S,4S)-2-oxa-5-azabicyclo[2.2.1]hept-5-yl]-1-(2,2,2-trifluoroethyl)-1H-pyrazolo[3,4-d]pyrimidin-6-yl}phenyl)urea]
[1]
  IC50: 0.775 nM
[2]
  IC50: < 1 nM
[3]
  IC50: 1 nM
[4]; PI3 Kinase γ
  IC50: 3020 nM
[5]; PI3 Kinase α
  IC50: 220 nM

## CN1CCN(c2ccc(NC(=O)Nc3ccc(-c4nc(N5C[C@@H]6C[C@H]5CO6)c5cnn(CC(F)(F)F)c5n4)cc3)cc2)CC1 [Example 295, 1-[4-(4-methylpiperazin-1-yl)phenyl]-3-(4-{4-[(1S,4S)-2-oxa-5-azabicyclo[2.2.1]hept-5-yl]-1-(2,2,2-trifluoroethyl)-1H-pyrazolo[3,4-d]pyrimidin-6-yl}phenyl)urea]
[1]
  IC50: 2.33 nM
[2]
  IC50: 1 nM
[3]
  IC50: 13 nM
[4]; PI3 Kinase γ
  IC50: 4670 nM
[5]; PI3 Kinase α
  IC50: 410 nM

## O=C(Nc1ccc(CCO)cc1)Nc1ccc(-c2nc(N3C[C@@H]4C[C@H]3CO4)c3cnn(CC(F)(F)F)c3n2)cc1 [Example 297, 1-[4-(2-hydroxyethyl)phenyl]-3-(4-{4-[(1S,4S)-2-oxa-5-azabicyclo[2.2.1]hept-5-yl]-1-(2,2,2-trifluoroethyl)-1H-pyrazolo[3,4-d]pyrimidin-6-yl}phenyl)urea]
[1]; [6]
  IC50: 0.55 nM
[2]
  IC50: < 1 nM
[3]
  IC50: 4 nM
[4]; [7]
  IC50: 3580 nM
[5]; [8]
  IC50: 275 nM

## O=C(Nc1ccc(-c2nc(N3C[C@@H]4C[C@H]3CO4)c3cnn(CC(F)(F)F)c3n2)cc1)Nc1ccc(N2CCOCC2)cc1 [Example 298, 1-(4-morpholin-4-ylphenyl)-3-(4-{4-[(1S,4S)-2-oxa-5-azabicyclo[2.2.1]hept-5-yl]-1-(2,2,2-trifluoroethyl)-1H-pyrazolo[3,4-d]pyrimidin-6-yl}phenyl)urea]
[1]; [6]
  IC50: 1.25 nM
[2]
  IC50: < 1 nM
[3]
  IC50: 1 nM
[4]; [7]
  IC50: 10400 nM
[5]; [8]
  IC50: 1220 nM
